Laboratory results published in the NIST ThermoML archive (doi:10.1016/j.jct.2011.06.019).

Tests used:
[1] = molar heat capacity at constant pressure; conditions: Liquid, Flow calorimetry
[2] = molar heat capacity at constant pressure; xn = mol fraction of the nth substance listed; conditions: 313.15 K, Liquid, Flow calorimetry

CCO [ethanol]
molar heat capacity at constant pressure [J/K/mol], [1]
Conditions | 100 kPa | 5000 kPa | 10000 kPa | 15000 kPa | 20000 kPa
273.15 K | 103.5 | 103.1 | 102.1 | 101.7 | 100.7
293.15 K | 111.2 | 110.2 | 109 | 108.1 | 107.4
313.15 K | 119.2 | 118 | 116.8 | 115.5 | 114.9
333.15 K | 130 | 129.1 | 127.7 | 126 | 124.7

CCO [ethanol] + CCCCCCC
[2], x2 = 0
Conditions | molar heat capacity at constant pressure [J/K/mol]
100 kPa | 119.2
5000 kPa | 118
10000 kPa | 116.8
15000 kPa | 115.5
20000 kPa | 114.9

CCO [ethanol] + Cc1ccccc1
[2], x2 = 0
Conditions | molar heat capacity at constant pressure [J/K/mol]
100 kPa | 119.2
5000 kPa | 118
10000 kPa | 116.8
15000 kPa | 115.5
20000 kPa | 114.9

CCCCCCC [heptane]
molar heat capacity at constant pressure [J/K/mol], [1]
Conditions | 100 kPa | 5000 kPa | 10000 kPa | 15000 kPa | 20000 kPa
273.15 K | 216.2 | 213.1 | 210.9 | 208.1 | 207.2
293.15 K | 224.1 | 223 | 218.2 | 216.8 | 214.4
313.15 K | 233.8 | 230.3 | 226.2 | 223.1 | 221.6
333.15 K | 241.9 | 238.7 | 235 | 232 | 229.3

CCCCCCC [heptane] + CCO
molar heat capacity at constant pressure [J/K/mol], [2]
Conditions | x1 = 0.1 | x1 = 0.2001 | x1 = 0.3 | x1 = 0.4001 | x1 = 0.5001 | x1 = 0.6 | x1 = 0.6999 | x1 = 0.7999 | x1 = 0.9 | x1 = 1
100 kPa | 134.2 | 149.4 | 163.6 | 176.8 | 190.9 | 202.9 | 215.3 | 224.9 | 234.8 | 233.8
5000 kPa | 132.5 | 147.1 | 160.8 | 174.2 | 187.6 | 200 | 211.9 | 221.4 | 230.4 | 230.3
10000 kPa | 130.7 | 146.1 | 158.6 | 171.6 | 185 | 196.7 | 209 | 218.7 | 226.9 | 226.2
15000 kPa | 129.5 | 143.6 | 156.7 | 169.4 | 182.5 | 194.8 | 205.9 | 215.9 | 223.8 | 223.1
20000 kPa | 128.4 | 142.4 | 155.3 | 168.3 | 180.9 | 193.1 | 204 | 213.3 | 222.6 | 221.6

Cc1ccccc1 [toluene] + CCO
molar heat capacity at constant pressure [J/K/mol], [2]
Conditions | x1 = 0.1003 | x1 = 0.2007 | x1 = 0.2999 | x1 = 0.4002 | x1 = 0.5 | x1 = 0.6001 | x1 = 0.7 | x1 = 0.8 | x1 = 0.9001 | x1 = 1
100 kPa | 130.1 | 138.3 | 146.1 | 153.2 | 159.1 | 163.7 | 167.7 | 169.5 | 168.5 | 163.5
5000 kPa | 128.7 | 136.6 | 144.2 | 151.3 | 157.1 | 162 | 165.3 | 167.5 | 167.3 | 161.3
10000 kPa | 127.3 | 135.5 | 143.2 | 150 | 155.7 | 160.2 | 164.1 | 166.3 | 165.9 | 159.9
15000 kPa | 126.1 | 134.4 | 141.9 | 148.5 | 154.3 | 158.6 | 162.6 | 164.9 | 165.2 | 158.9
20000 kPa | 125.1 | 133.6 | 140.9 | 147.5 | 153.4 | 158.1 | 161.8 | 164 | 163.6 | 157.8
